# Experimental data published in US20130064913A1, “ANTI-INFLAMMATORY BOTANICAL PRODUCTS FOR THE TREATMENT OF METABOLIC SYNDROME AND DIABETES” (Metaproteomics, LLC, priority 2001, published 2013).
# Like-named read-outs stand apart in the source and are kept apart here. Marks after values point to notes of the source that are not given here.
# Legend:
# [1] = test system: PGE2 synthesis in LPS-stimulated RAW 264.7 cells; assay: PGE2 inhibition in LPS-stimulated RAW 264.7 murine macrophages (Example 1); type: cell-based; conditions: for IC50: Mus musculus, RAW264.7; for Relative Potency: category of anti-inflammatory activity based on IC50
# [2] = test system: LPS-treated 3T3-L1 adipocytes; assay: Adiponectin secretion in LPS/3T3-L1 adipocytes; type: cell-based, murine; conditions: 100 ng LPS/ml
# NF-κB = NF-κB DNA binding of nuclear extracts (TransAM NF-κB kit) from LPS-stimulated RAW 264.7 cells; type: cell-based, murine; conditions: LPS 4 h; MgRIAA 55 and 14 μg/ml, parthenolide 80 μM, LY294002 25 μM
# Method: Nuclear extracts were prepared essentially as described by Dignam, et al [Nucl Acids Res 11:1475-1489, (1983)]. […] Cells were then scraped into a clean tube and processed through three cycles of freeze/thaw. The supernatant layer following centrifugation at 10,000×g for 5 min at 4° C. was the cytoplasmic fraction. […] The nuclear extract fraction was collected as the supernatant layer following centrifugation at 10,000×g for […] at 4° C. NF-kB DNA binding of the nuclear extracts was assessed using the TransAM NF-κB kit from Active Motif (Carlsbad, Calif.) as per manufacturer's instructions. […] Protein concentration was measured (Bio-Rad assay) and 10 μg of nuclear protein extracts were assayed in duplicate.
# COX-2 protein expression = COX-2 protein expression by Western blot in LPS-stimulated RAW 264.7 cells; type: cell-based, murine; conditions: 20 hours LPS, versus DMSO solvent control
# Method: Densitometry was performed using Kodak®software.
# [3] = test system: TNFα-treated 3T3-L1 adipocytes; assay: IL-6 secretion from TNFα-treated 3T3-L1 adipocytes; type: cell-based, murine; conditions: Mus musculus, 10 ng TNFα/ml; for inhibition at 1 µg/mL: 1.0 μg/ml
# 3T3-L1 adipocytes = assay: Lipogenesis (Oil Red O / BODIPY) in 3T3-L1 adipocytes; type: cell-based, murine; conditions: hops compounds 10, 5, 4 or 2 μg/ml, spent hops 50 μg/ml (Example 19)
# [4] = test system: insulin-resistant 3T3-L1 adipocytes; assay: Adiponectin secretion from insulin-resistant 3T3-L1 adipocytes; type: cell-based, murine; conditions: for Adiponectin/IL-6: insulin-resistant model
# Excerpt: For two days, the cells were allowed grow to reach confluence. […] Twenty-four hours later, the supernatant medium was sampled for adiponectin determination. […] The adiponectin secreted into the medium was quantified using the Mouse Adiponectin Quantikine® Immunoassay kit with no modifications (R&D Systems, Minneapolis, Minn.). […] Substituting {relative adiponectin secretion/[concentration]} for the independent variable v/[S] and {relative adiponectin secretion} for the dependant variable {v}, produced a relationship of the form y=mx+b. Maximum adiponectin secretion relative to the solvent control was estimated from the y-intercept, while the concentration of test material necessary for half maximal adiponectin secretion was computed from the negative value of the slope.
# [5] = arbitrary category of the median inhibitory concentration, read-out: Relative IC50
# [6] = test material added 90 min before LPS, 18 h, read-out: IC50 (PGE2 inhibition)
SMILES,IC50 [1] [µg/mL],"IC50 [1, 5] [µg/mL]","IC50 [1, 6] [µg/mL]",further results
"COc1cc(/C=C/C(=O)CC(=O)/C=C/c2ccc(O)c(OC)c2)ccc1O [Curcumin, curcumin]",2 to 7,2 to 6,,
"Cc1ccc(-c2cc(C(F)(F)F)nn2-c2ccc(S(N)(=O)=O)cc2)cc1 [Celecoxib, celecoxib]",,,,% Stimulation of adiponectin secretion (maximum) [2]: failed to induce adiponectin secretion
C=C1C(=O)O[C@H]2[C@H]1CC/C(C)=C/CC[C@@]1(C)O[C@@H]21 [Parthenolide],,,,"NF-κB DNA binding, in words (NF-κB): significant reduction; reduction of COX-2 protein expression (COX-2 protein expression): 22.5%"
"O=c1c(-c2ccc(O)cc2)coc2cc(O)cc(O)c12 [Genistein, genistein]",0.3 to 1.7,1,1.7,Relative Potency [1]: high
"O=C1C[C@@H](c2ccc(O)cc2)Oc2cc(O)cc(O)c21 [Naringenin, naringenin]",> 12,> 12,> 12,
"O=C(O)c1ccccc1O [Salicylic acid, salicylic acid]",,,,% Stimulation of adiponectin secretion (maximum) [2]: failed to induce adiponectin secretion
"O=c1cc(-c2ccc(O)c(O)c2)oc2cc(O)cc(O)c12 [Luteolin, luteolin]",2 to 7,2 to 6,3.9,
"O=c1c(O)c(-c2ccccc2)oc2cc(O)cc(O)c12 [Galangin, galangin]",0.3 to 1.7,1,1.4,Relative Potency [1]: high
"O=c1c(O)c(-c2ccc(O)c(O)c2)oc2cc(O)ccc12 [Fisetin, fisetin]",> 12,> 12,> 12,
"Oc1ccc(C=Cc2cc(O)cc(O)c2)cc1 [Resveratrol, resveratrol]",2 to 7,,,
"COc1ccc2c(c1)c(CC(=O)O)c(C)n2C(=O)c1ccc(Cl)cc1 [Indomethacin, indomethacin]",,,,% Stimulation of adiponectin secretion (maximum) [2]: 9%
"O=c1c(O)c(-c2ccc(O)cc2O)oc2cc(O)cc(O)c12 [Morin, morin]",> 12,> 12,> 12,
Cc1c(C)c2c(c(C)c1O)CCC(C)(COc1ccc(CC3SC(=O)NC3=O)cc1)O2 (centres unmarked) [Troglitazone],,,,inhibition at 1 µg/mL [3]: 34%; Concentration at maximum stimulation of adiponectin secretion [2]: 0.625 µg/mL
CC(=O)Oc1ccccc1C(=O)O [Aspirin],,,,% Stimulation of adiponectin secretion (maximum) [2]: failed to induce adiponectin secretion
"CC(C)Oc1ccc2c(=O)c(-c3ccccc3)coc2c1 [Ipriflavone, ipriflavone]",2 to 7,2 to 6,6.3,
"CC1(C)CC[C@]2(C(=O)O)CC[C@]3(C)C(=CC[C@@H]4[C@@]5(C)CC[C@H](O)C(C)(C)[C@@H]5CC[C@]43C)[C@@H]2C1 [Oleanolic acid, oleanolic acid]",,1,,
COc1ccc2cc3[n+](cc2c1OC)CCc1cc2c(cc1-3)OCO2 [Berberine],2 to 7,,,
O=c1cc(N2CCOCC2)oc2c(-c3ccccc3)cccc12 [LY294002],,,,"NF-κB DNA binding, in words (NF-κB): modest decrease"
O=c1c(O)c(-c2ccc(O)c(O)c2)oc2cc(O)cc(O)c12 [Quercetin],0.3 to 1.7,1,0.82,Relative Potency [1]: high
CC(C)CCC1=C(O)C(C(=O)C(C)C)=C(O)C(CCC(C)C)(CCC(C)C)C1=O [Hexahydrocolupulone],,,,"adipogenic response, in words (3T3-L1 adipocytes): failed to elicit a lipogenic response greater than the solvent controls; Adiponectin/IL-6 ([4]; 25 μg/ml): 1.36#; Adiponectin/IL-6 ([4]; 50 μg/ml): 0.60#; concentration at which maximal adiponectin secretion was observed ([4]; of the four doses tested): 12.5 µg/mL"
CN(C)C(=N)N=C(N)N [Metformin],,,,inhibition at 1 µg/mL [3]: 9%; inhibition at 5 µg/mL ([3]; 5.0 μg/ml): 4%; inhibition at 10 µg/mL ([3]; 10 μg/ml): 22%; inhibition at 50 µg/mL ([3]; 50 μg/ml): 22%
CCc1ccc(CCOc2ccc(CC3SC(=O)NC3=O)cc2)nc1 (centres unmarked) [Pioglitazone],,,,Adiponectin Index (maximum stimulation) ([2]; relative to LPS control): 1.12*
"O=c1cc(-c2ccc(O)cc2)oc2cc(O)cc(O)c12 [Apigenin, apigenin]",2 to 7,2 to 6,2.8,
